Assay results taken from US4039384A, “Creatinine amidohydrolase and creatine amidinohydrolase and process for producing them” (Noda Institute for Scientific Research, priority 1975, dated 1977).
Like-named read-outs stand apart in the source and are kept apart here.

Tests used:
[1] = molecular target: T1, creatine amidinohydrolase of prior art (i) (Journal of General Microbiology, Vol. 14, pp. 351 to 365 (1956); Genus Pseudomonas) (Pseudomonas putida, UniProt P38488); conditions: cited from earlier work
T1 sequence (P38488 1-403): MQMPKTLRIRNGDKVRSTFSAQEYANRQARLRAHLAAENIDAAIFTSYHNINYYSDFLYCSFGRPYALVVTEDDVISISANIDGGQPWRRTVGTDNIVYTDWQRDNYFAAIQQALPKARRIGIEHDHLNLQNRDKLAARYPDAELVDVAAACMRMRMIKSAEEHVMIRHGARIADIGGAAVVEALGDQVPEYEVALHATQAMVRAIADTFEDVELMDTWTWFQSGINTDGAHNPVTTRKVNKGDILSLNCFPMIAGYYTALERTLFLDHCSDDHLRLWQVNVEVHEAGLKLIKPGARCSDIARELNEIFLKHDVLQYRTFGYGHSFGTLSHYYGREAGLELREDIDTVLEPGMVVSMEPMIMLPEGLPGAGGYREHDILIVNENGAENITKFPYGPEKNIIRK

[2] = molecular target: T2, creatine amidinohydrolase of this invention (from Flavobacterium U-188, Micrococcus luteus ATCC 398 or Corynebacterium U-41) (Flavobacterium sp. U-188, UniProt P19213); test: Creatine amidinohydrolase activity, enzyme of this invention; format: biochemical
T2 sequence (P19213 1-403): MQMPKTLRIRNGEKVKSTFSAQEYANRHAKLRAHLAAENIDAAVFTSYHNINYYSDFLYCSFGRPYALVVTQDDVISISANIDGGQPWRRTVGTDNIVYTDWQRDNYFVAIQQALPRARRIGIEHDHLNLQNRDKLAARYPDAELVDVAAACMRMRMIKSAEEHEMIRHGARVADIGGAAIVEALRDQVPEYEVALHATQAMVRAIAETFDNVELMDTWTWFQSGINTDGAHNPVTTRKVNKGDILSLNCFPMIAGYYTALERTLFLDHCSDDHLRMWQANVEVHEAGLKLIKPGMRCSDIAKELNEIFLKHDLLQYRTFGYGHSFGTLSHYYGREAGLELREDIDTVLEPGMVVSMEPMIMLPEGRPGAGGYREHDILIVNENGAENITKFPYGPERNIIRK
Protocol: This enzyme has an ability to hydrolyze creatine into urea and sarcosine. […] 2.
To 0.8 ml of 0.1 M creatine solution are added 0.1 of 0.3 M phosphate buffer (pH 7.7) and 0.1 ml of a solution of this enzyme having an appropriate concentration, and the resulting mixture is reacted at 37° C. for 10 minutes. Then, 2 ml of 2% (W/V) p-dimethylaminobenzaldehyde solution (prepared by dissolving 2 g of p-dimethylaminobenzaldehyde into 100 ml of 99.5% ethanol, adding 15 ml of concentrated hydrochloric acid and diluting the mixture with distilled water to a 2 times greater quantity) is added, and the resulting mixture is allowed to stand at 25° C. for 30 minutes. Then, its absorbance (O. D. value) at 435 mμ is measured with photoelectric colorimeter. […] The quantity of enzyme necessary for producing 1 micromole of urea per one minute at 37° C. is taken as one unit.

[3] = inhibitor final concentration 5 × 10^-2 M, pH 9.1
[4] = inhibitor final concentration 2 × 10^-2 M

O=C(O)CI [Iodoacetate]
Percentage inhibition of creatine removal ([1]; inhibitor final concentration 10^-2 M): 20% | inhibition at 10000 µM ([2]; read-out: Percentage inhibition of creatine removal): 0%

Borate
Percentage inhibition of creatine removal [1, 3]: 80% | Percentage inhibition of creatine removal [2, 3]: 40%

[N-]=[N+]=[N-] [Azide]
Percentage inhibition of creatine removal [1, 4]: 18% | Percentage inhibition of creatine removal [2, 4]: 0%
